How the values were obtained:
[1] = Photocatalytic NADH oxidation (UV-vis); type: biochemical; parameters: key: TON = ΔNADH concentration after 1 h / photocatalyst concentration; details: first hour, complex 2.5 μM, NADH 100 μM
Method: Fresh stock solutions of the complexes at 7.50 μM in H2O/MeOH mixture (97.5/2.5, v/v) and NADH at 300 μM in H2O/MeOH mixture (97.5/2.5, v/v) were prepared. In a quartz cell, 1 mL of complex solution, 1 mL of NADH solution, and 1 mL of solvent mixture were mixed to prepare a final solution with 2.50 μM complex and 100 μM NADH (complex/NADH rate = 1/40). The solutions were studied by recording UV–vis absorption spectra in dark conditions and under blue light irradiation (λexc = 470 nm, “Medusa” photoreactor) at ambient temperature and various time intervals for 8 h. In addition, a solution of NADH at 100 μM was studied under blue light irradiation to confirm its photostability. The photocatalytic rate of the photosensitizers was evaluated by monitoring its absorbance decrease at 340 nm, which correspond to NADH oxidation.
The turnover numbers (TONs) of complexes were calculated by measuring the absorption difference at 340 nm after 1 h of reaction. TON was calculated from the difference in NADH concentration after 1 h divided by the concentration of photocatalyst (eq 5), where b is the optical path length (1 cm). The concentration of NADH was obtained using the extinction coefficient ε340 = 5751 M^–1 cm^–1.[40],[148] [drawing 26] 5

[2] = 1O2 quantum yield determination with ABDA; details: H2O/DMSO (95:5); 470 nm blue light
Method: Fresh stock air-equilibrated solutions of photosensitizers 1–2 and 7–8 (1.00 × 10^–3 M) and ABDA (6.00 × 10^–4 M) in H2O/DMSO (95:5) were prepared. In a quartz cell, 0.50 mL of ABDA solution, 0.03 mL of complex solution, and 2.47 mL of H2O/DMSO (95:5) were mixed to prepare a final solution with 1.00 × 10^–4 M ABDA and 1.00 × 10^–5 M complex. The final solutions were studied by recording UV–vis absorption spectra at room temperature under blue light irradiation (λexc = 470 nm, “Medusa” photoreactor) for 30 s irradiation intervals during a total exposure period of 5 min. Absorption UV–vis spectra were recorded after every irradiation interval.
The consumption of ABDA probe was measured by monitoring its absorbance intensity decrease at 402 nm with irradiation time. ^1O2 generation quantum yield (ϕΔ) was calculated from eq 1 using Rose Bengal or [Ru(bpy)3]^2+ as reference. In this case, the ϕΔ values of the references in H2O/DMSO (95:5) are 0.76 for Rose Bengal[73] and 0.18 for [Ru(bpy)3]Cl2.[136] The reproducibility of the results was confirmed by performing each experiment three times.

[3] = test system: porcine red blood cells (RBC); test: Hemolytic activity (hemoglobin release); type: cell-based; details: dark, 1 hour
Method: The hemolytic activities of the complexes were determined by measuring hemoglobin release from porcine red blood cells (RBC). First, fresh porcine blood commercially obtained was diluted to 5% v/v in PBS solution and washed three times with PBS by centrifugation at 1000 rcf for 10 min. Then, RBC suspension (150 μL) was mixed with 150 μL of each complex at concentrations ranging from 1 to 50 μM. A solution of 0.2% Triton X-100 in PBS was used as positive control to induce complete hemolysis. PBS alone was used as negative control. Samples were incubated at 37 °C for 1 h in an orbital shaker (50 rpm) and then centrifuged at 3500 rcf for 10 min. 80 μL aliquots of the supernatant were transferred to a 96-well plate and diluted with 80 μL of Milli-Q water. Hemolysis was evaluated by measuring the absorbance of the samples at 540 nm with a Synergy 4 plate reader (BioTek, Winooski). The percentage of hemolysis (H) was calculated using eq 4: [drawing 25] 4 where As is the absorbance for a given sample, An is the absorbance for the negative control, and Ap is the absorbance for the positive control. Each sample was tested in triplicate.

A549 cells [4] = test: Trypan blue exclusion test; type: cell-based, human; details: complexes at respective IC50 in the dark, 24 h
Method: To assess the cytotoxicity of the complexes, A549 cells were seeded in 96-well plates and treated with the complexes at the respective IC50,dark value. After 24 h of incubation, 10 μL of Trypan Blue (0.4% solution; Sigma) was added directly to the wells to avoid loss of dead cells in the treatment washes. After 10 min, images of the cells were captured using an Olympus CKX41 Microscope equipped with LCmicro software (Olympus).

A549 cells [5] = test: Superoxide anion production (ROS-ID Superoxide Detection Kit); type: cell-based, human; details: 10 nM, photoactivated with blue light
Method: The types of ROS generated by the treatments were also investigated. Superoxide anion (O2^•–) production was monitored using the ROS-ID Superoxide Detection Kit (Enzo Life Sciences), which contains a cell-permeable probe that selectively emits orange fluorescence upon reacting with O2^•–. Following the treatments, cells were harvested and incubated with the probe for 30 min at 37 °C. Fluorescence emission from 1 × 10^4 cells was measured by flow cytometry (Ex/Em: 550/620 nm) and compared to that of control untreated cells. In addition, hydrogen peroxide (H2O2) generation was measured using the Hydrogen Peroxide Assay Kit (Cell-based) (Abcam). […] After 1 h of incubation at 37 °C, the median fluorescence of 1 × 10^4 cells was determined by flow cytometry (Ex/Em = 490/520 nm) and compared to that of control cells. All experiments were conducted in triplicate.

A549 cells [6] = test: Intracellular ROS production (CM-H2DCFDA, flow cytometry); type: cell-based, human; details: for elevation of ROS levels (median fluorescence): 10 nM, 4 h then blue light 1 h, vs untreated control; for increase in cellular ROS content: complexes at IC50,dark, 5 h, no irradiation
Method: A549 cells were seeded onto 24-well plates (5 × 10^4 cells/well) 24 h before the experiment. The cells were incubated for 4 h with complexes 2, 4, 6, and 8 at 10 nM and then photoactivated or kept in the dark for an additional hour. In addition, the cells were treated for 5 h with the complexes at the corresponding IC50,dark without irradiation. The cells exposed for 30 min to 0.5 μM FeCl2 and 0.04% H2O2, as ROS inducers, were used as positive control. After the treatments, the cells were washed with PBS and harvested by trypsinization. Intracellular ROS were detected by incubation with the chloromethyl 2′,7′-dichlorodihydrofluorescein diacetate (CM-H2DCFDA; Invitrogen) probe at 2.5 μM for 30 min at 37 °C. After washing with PBS, the median fluorescence of 1 × 10^4 cells was measured with a NovoCyte flow cytometer (Agilent Technologies) equipped with the NovoExpress software. The fold increase versus control untreated cells was determined for each treatment in three independent experiments.

SMILES	TON1h (NADH oxidation) ([1]; 470 nm blue light)	TON1h (NADH oxidation) ([1]; dark)	1O2 generation quantum yield (ϕΔ), ABDA [2]	Hemolytic activity ([3]; 1 μM) [%]	Hemolytic activity ([3]; 5 μM) [%]	Hemolytic activity ([3]; 10 μM) [%]	Hemolytic activity ([3]; 25 μM) [%]	proportion of cells with uptake of trypan blue dye (A549 cells [4]) [%]	superoxide anion (O2•–) increase in mean fluorescence (A549 cells [5]) [fold]	elevation of ROS levels (median fluorescence) (A549 cells [6]) [fold]	increase in cellular ROS content (A549 cells [6]) [fold]
Cc1c(C)c(C)[c-](C)c1C.[Cl][Ir]1[c]2cccc3c4nc5ccccc5nc4c4ccc[n+]1c4c23 [complex 1, [(η^5-C5Me5)IrCl(pbpz)]]	12.47	0.16	0.1913	–	–	–	–	–	–	–	–
Cc1c(C)c(C)[c-](C)c1C.F[B-](F)(F)F.c1ccc2cc3nc4c5ccc[n+]6c5c5[c](cccc5c4nc3cc2c1)[Ir]6[n+]1cc[nH]c1 [complex 4, [(η^5-C5Me5)Ir(Im)(pbpn)]BF4]	9.71	0.31	–	0	0	0.5	6.7	54	2.4	2.2	2.8
Cc1c(C)c(C)[c-](C)c1C.F[B-](F)(F)F.c1ccc2nc3c4ccc[n+]5c4c4[c](cccc4c3nc2c1)[Ir]5[n+]1ccn(CCN2CCCCC2)c1 [complex 5, [(η^5-C5Me5)Ir(Imepip)(pbpz)]BF4]	2.36	0.37	–	–	–	–	–	–	–	–	–
Cc1c(C)c(C)[c-](C)c1C.F[B-](F)(F)F.c1ccc2cc3nc4c5ccc[n+]6c5c5[c](cccc5c4nc3cc2c1)[Ir]6[n+]1ccn(CCN2CCCCC2)c1 [complex 6, [(η^5-C5Me5) Ir(Imepip)(pbpn)]BF4]	7.79	0.94	–	0	0	1.0	10.7	53	2.8	2.4	2.6
Cc1c(C)c(C)[c-](C)c1C.F[B-](F)(F)F.c1ccc(Cn2cc[n+]([Ir]3[c]4cccc5c6nc7ccccc7nc6c6ccc[n+]3c6c45)c2)cc1 [complex 7, [(η^5-C5Me5)Ir(bzIm)(pbpz)]BF4]	4.54	0.12	0.0526	–	–	–	–	–	–	–	–
Cc1c(C)c(C)[c-](C)c1C.F[B-](F)(F)F.c1ccc(Cn2cc[n+]([Ir]3[c]4cccc5c6nc7cc8ccccc8cc7nc6c6ccc[n+]3c6c45)c2)cc1 [complex 8, [(η^5-C5Me5)Ir(bzIm)(pbpn)]BF4]	5.75	0.14	0.4986	0.2	1.0	3.2	16.3	23	2.6	5.6	1.7

From publication PMC10859961, “Ir(III) Half-Sandwich Photosensitizers with a π-Expansive Ligand for Efficient Anticancer Photodynamic Therapy” (Journal of Medicinal Chemistry, 2024)
